Data set [1] deals with PTPN22. Description: PTPN22 expression by western blot in shRNA-transduced RAMOS B cell line. In kind it is cell-based. The note with it: human RAMOS B cell line, GFP+ shRNA+ vs GFP-. The protocol: FIG. 10A depicts flow cytometry analysis of Ramos B cells transduction efficiency. Ramos B cells were transduced with three different GFP-tagged shRNA PTPN22 expressing lentiviruses and probed for GFP expression. […] Percentage of knock-down is indicated. FIG. 10B depicts the frequencies of polyreactive new emigrant B cells from sorted GFP− fractions were determined. […] For each B-cell fraction, the frequency of reactive (filled area) and non-reactive (open area) clones is summarized in pie charts with the total number of clones tested indicated in the center. FIG. 10C depicts the frequencies of HEp-2 reactive new emigrant B cells from sorted GFP− fractions were determined. […] For each B-cell fraction, the frequency of reactive (filled area) and non-reactive (open area) clones is summarized in pie charts with the total number of clones tested indicated in the center. FIG. 10D depicts the frequencies of antinuclear new emigrant B cells are compared between GFP− and GFP+ shRNA+ new emigrant B cells. […]
(§1) Total cell lysates were separated by SDS page, transferred to PVDF membranes, probed with mouse anti-PTPN22 (Invitrogen) and detected by chemiluminescence (Amersham ECL Prime Western Blotting detection Reagent) using a GBox documentation system (Syngene). For quantification, blots were stripped with stripping buffer (Pierce) and reprobed with a mouse anti-β-Actin antibody (Sigma-Aldrich).

In data set [2] the test system is PTPN22. Description: PTPN22 protein expression in GFP+ shRNA+ developing B cells from spleen of NSG mice. The format is in vivo, human. As to conditions: GFP+ vs GFP- hCD19+ cells from spleen of NSG mice.
Excerpt: FIG. 9A depicts a schematic of the experimental design. CD34+ HSCs carrying PTPN22 T allele(s) were transduced with lentiviruses allowing the expression of PTPN22 shRNA before injection in the liver of 3 day-old NSG mice. FIG. 9B depicts representative flow cytometry analysis of CD19+ cells isolated from the spleen of NSG mouse engrafted with PTPN22 C/T HSCs transduced with a GFP-tagged lentivirus expressing PTPN22 specific shRNA. CD19+ B cells were stained with anti-hCD19, anti-IgM and anti-hCD10 antibodies. The frequencies of GFP− and GFP+ shRNA+ new emigrant B cells are shown. […] The frequencies of polyreactive new emigrant B cells from sorted GFP+ fractions expressing PTPN22 shRNA were determined and compared to those of GFP− new emigrant B cells. […] The frequencies of HEp-2 reactive new emigrant B cells from sorted GFP+ fractions expressing PTPN22 shRNA were determined and compared to those of GFP− new emigrant B cells. […]
as §1

The target in data set [3] is T1, PTPN22 (Homo sapiens, UniProt Q9Y2R2).
T1 construct: host or cells: T cells (not further specified)
T1 sequence (Q9Y2R2 1-807): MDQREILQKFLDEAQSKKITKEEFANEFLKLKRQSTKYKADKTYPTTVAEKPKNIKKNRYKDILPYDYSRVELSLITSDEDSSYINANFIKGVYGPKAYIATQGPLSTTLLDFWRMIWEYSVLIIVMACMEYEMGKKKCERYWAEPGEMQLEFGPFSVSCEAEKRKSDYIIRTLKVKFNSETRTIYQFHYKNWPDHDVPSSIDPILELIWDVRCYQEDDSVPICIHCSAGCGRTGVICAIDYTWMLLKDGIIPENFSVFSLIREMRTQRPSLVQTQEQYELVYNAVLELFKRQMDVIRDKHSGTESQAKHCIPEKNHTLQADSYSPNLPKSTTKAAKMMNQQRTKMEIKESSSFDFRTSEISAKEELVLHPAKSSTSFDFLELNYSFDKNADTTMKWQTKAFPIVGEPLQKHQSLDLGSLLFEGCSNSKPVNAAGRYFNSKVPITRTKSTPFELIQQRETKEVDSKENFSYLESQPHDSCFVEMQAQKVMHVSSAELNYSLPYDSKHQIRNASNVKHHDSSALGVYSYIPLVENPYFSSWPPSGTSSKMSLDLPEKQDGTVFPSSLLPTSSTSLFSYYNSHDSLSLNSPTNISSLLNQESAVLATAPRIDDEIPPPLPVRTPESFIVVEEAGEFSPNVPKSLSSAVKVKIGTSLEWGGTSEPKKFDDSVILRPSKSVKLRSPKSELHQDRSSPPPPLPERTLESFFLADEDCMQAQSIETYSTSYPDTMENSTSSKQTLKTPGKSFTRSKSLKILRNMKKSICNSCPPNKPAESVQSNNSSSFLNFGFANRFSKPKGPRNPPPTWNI
The note with it: Vang et al., 2012; cited from earlier work.

Regarding “shRNA #1: shRNA targeting human PTPN22, 5′-CTAGTGCTCTTGGTGTATATT-3′, delivered by GFP-tagged lentivirus”, the “inhibition of PTPN22 expression detected by western blot” value in the data set on PTPN22 [1] is on record as “about 80%”. The “decrease of PTPN22 expression in developing B cells” value with PTPN22 [2] is given as “more than 90%”.

For `Cc1ccccc1N1C(=O)/C(=C/c2ccc(OCc3cccc(C(=O)O)c3)cc2)C(=O)NC1=S` [LTV-1], the “PTPN22 enzymatic activity in T cells in vitro” value at PTPN22 [3] is reported as “can be inhibited”.

The values are drawn from patent publication US11311543B2, “Compositions and methods for inhibiting PTPN22” (YALE UNIVERSITY, priority 2016, dated 2022).
